From PubChem BioAssay AID1745844 (Carcinogenic Potency Database (CPDB), 2022) come the findings set out here.

This data set relates to rodent lifetime carcinogenesis bioassay, tumor incidence TD50. As to the kind of experiment: chronic cancer bioassays in animals – CPDB, compiled studies (AID 1745844).

The source made the active and inactive calls. How the calls were made is not given here.

By TD50 is commonly meant the 50% point of the dose-response relation for the toxic effect studied.

For `C[C@]12C=CC(=O)C=C1CC[C@@H]1[C@@H]2[C@@H](O)C[C@@]2(C)[C@H]1CC[C@]2(O)C(=O)CO`, the TD50 by setting is: (rat, strain Charles River CD (Sprague-Dawley), males, in drinking water, site: liver, lesion: hepatocellular adenoma, dosed 104 weeks, study length 104 weeks) 2.16 mg/kg/day; (rat, strain Charles River CD (Sprague-Dawley), males, in drinking water, site: liver, lesion: hepatocellular carcinoma, dosed 104 weeks, study length 104 weeks) 6.58 mg/kg/day; (rat, strain Charles River CD (Sprague-Dawley), males, in drinking water, site: liver, lesion: several types, types named in the paper, dosed 104 weeks, study length 104 weeks) 1.53 mg/kg/day; (rat, strain Sprague-Dawley, females, by gavage, site: any site (literature study), lesion: benign tumor, dosed 78 weeks, study length 104 weeks) 1.96 mg/kg/day (inactive). Moreover, the carcinogen call (rat, strain Sprague-Dawley, females, by gavage, site: any site (literature study), lesion: malignant tumor, dosed 78 weeks, study length 104 weeks) was “negative (inactive)”.

Take `O=P(=O)O`: the TD50 (rat, strain F344/DuCrj, females, in feed, site: any site (literature study), lesion: several types, types named in the paper, dosed 108 weeks, study length 108 weeks) is 5100 mg/kg/day (inactive). The carcinogen call runs as follows: (rat, strain F344/DuCrj, females, in feed, site: liver, lesion: one or several types, types not named, dosed 108 weeks, study length 108 weeks) “negative (inactive)”; (rat, strain F344/DuCrj, males, in feed, site: any site (literature study), lesion: several types, types named in the paper, dosed 108 weeks, study length 108 weeks) “negative (inactive)”; (rat, strain F344/DuCrj, males, in feed, site: liver, lesion: one or several types, types not named, dosed 108 weeks, study length 108 weeks) “negative (inactive)”.

Regarding `F`, the carcinogen call by setting is: (mouse, strain B6C3F1, females, in drinking water, site: any site (literature study), lesion: several types, types named in the paper, dosed 103 weeks, study length 104 weeks) “negative (inactive)”; (mouse, strain B6C3F1, males, in drinking water, site: any site (literature study), lesion: several types, types named in the paper, dosed 103 weeks, study length 104 weeks) “negative (inactive)”; (mouse, strain Charles River CD1, both sexes, in drinking water, site: any site (literature study), lesion: malignant tumor, dosed 129 weeks, study length 129 weeks) “negative (inactive)”; (mouse, strain Charles River CD1, both sexes, in drinking water, site: any site (literature study), lesion: one or several types, types not named, dosed 129 weeks, study length 129 weeks) “negative (inactive)”; (mouse, strain Charles River CD1, both sexes, in drinking water, site: liver, lesion: one or several types, types not named, dosed 129 weeks, study length 129 weeks) “negative (inactive)”; (mouse, strain Charles River CD1, both sexes, in drinking water, site: lung, lesion: one or several types, types not named, dosed 129 weeks, study length 129 weeks) “negative (inactive)”. Where the note is “mouse, strain DBA, females, in feed, site: mammary gland, lesion: carcinoma, dosed 90 weeks, study length 90 weeks”, the carcinogen call was “negative (inactive)”. In addition, the TD50 reads like this: (rat, strain Fischer 344, females, in drinking water, site: any site (literature study), lesion: several types, types named in the paper, dosed 103 weeks, study length 104 weeks) 73.9 mg/kg/day (inactive); (rat, strain Fischer 344, males, in drinking water, site: any site (literature study), lesion: several types, types named in the paper, dosed 103 weeks, study length 104 weeks) 147 mg/kg/day; (rat, strain Fischer 344, males, in drinking water, site: coccyx + humerus + subcutaneous tissue + vertebra, lesion: osteosarcoma, dosed 103 weeks, study length 104 weeks) 82.7 mg/kg/day; (rat, strain Fischer 344, males, in drinking water, site: coccyx + humerus + vertebra, lesion: osteosarcoma, dosed 103 weeks, study length 104 weeks) 109 mg/kg/day.

For `O=CC(O)C(O)C(O)C(O)CO` (configuration not stated), the carcinogen call reads like this: (mouse, strain AP Alderly Park, females, in feed, site: any site (literature study), lesion: several types, types named in the paper, dosed 100 weeks, study length 100 weeks) “negative (inactive)”; (mouse, strain AP Alderly Park, females, in feed, site: lung, lesion: adenoma, dosed 100 weeks, study length 100 weeks) “negative (inactive)”; (mouse, strain AP Alderly Park, males, in feed, site: liver, lesion: hepatoma, dosed 100 weeks, study length 100 weeks) “negative (inactive)”; (mouse, strain AP Alderly Park, males, in feed, site: lung, lesion: adenoma, dosed 100 weeks, study length 100 weeks) “negative (inactive)”; (rat, strain AP Alderly Park, females, in feed, site: liver, lesion: one or several types, types not named, dosed 104 weeks, study length 104 weeks) “negative (inactive)”; (rat, strain AP Alderly Park, males, in feed, site: any site (literature study), lesion: several types, types named in the paper, dosed 104 weeks, study length 104 weeks) “negative (inactive)”. Moreover, the TD50 (mouse, strain AP Alderly Park, females, in feed, site: liver, lesion: hepatoma, dosed 100 weeks, study length 100 weeks) is 538000 mg/kg/day (inactive); the TD50 (mouse, strain AP Alderly Park, males, in feed, site: any site (literature study), lesion: several types, types named in the paper, dosed 100 weeks, study length 100 weeks) is 132000 mg/kg/day (inactive); the TD50 (rat, strain AP Alderly Park, females, in feed, site: any site (literature study), lesion: several types, types named in the paper, dosed 104 weeks, study length 104 weeks) was 7790 mg/kg/day (inactive); the TD50 (rat, strain AP Alderly Park, males, in feed, site: liver, lesion: hepatoma, dosed 104 weeks, study length 104 weeks) was 133000 mg/kg/day (inactive).

Regarding `FC(F)(F)CCl`, the TD50 reads like this: (rat, strain Alpk:APfSD, females, by gavage, site: uterus, lesion: adenocarcinoma, dosed 52 weeks, study length 125 weeks) 160 mg/kg/day; (rat, strain Alpk:APfSD, males, by gavage, site: testis, lesion: interstitial-cell tumor, dosed 52 weeks, study length 125 weeks) 60 mg/kg/day.

Regarding `CCCCC/C=C\C/C=C\CCCCCCCC(=O)OC`, the carcinogen call by setting is: (rat, strain Wistar, males, by gavage, site: gastrointestinal tract, lesion: several types, types named in the paper, dosed 30 weeks, study length 87 weeks) “negative (inactive)”; (rat, strain Wistar, males, by gavage, site: liver, lesion: one or several types, types not named, dosed 30 weeks, study length 87 weeks) “negative (inactive)”.

Under “rat, strain Fischer 344, males, i.p., site: any site (literature study), lesion: one or several types, types not named, dosed 52 weeks, study length 52 weeks”, `NC1=NCN([C@@H]2O[C@H](CO)[C@@H](O)[C@H]2O)C(=O)N1` registered a TD50 of 20.7 mg/kg/day.

In the case of `Cc1ncc([N+](=O)[O-])n1CCO`, the TD50 (mouse, strain Swiss, females, in feed, site: all sites, lesion: malignant lymphoma, dosed 122 weeks, study length 128 weeks) is 1300 mg/kg/day; the TD50 (mouse, strain Swiss, females, in feed, site: liver, lesion: several types, types named in the paper, dosed 122 weeks, study length 128 weeks) is 24200 mg/kg/day (inactive); the TD50 (mouse, strain Swiss, females, in feed, site: lung, lesion: several types, types named in the paper, dosed 122 weeks, study length 128 weeks) is 937 mg/kg/day; the TD50 (mouse, strain Swiss, males, in feed, site: liver, lesion: several types, types named in the paper, dosed 116 weeks, study length 124 weeks) was 20700 mg/kg/day (inactive); the TD50 (mouse, strain Swiss, males, in feed, site: lung, lesion: several types, types named in the paper, dosed 116 weeks, study length 124 weeks) was 347 mg/kg/day; the TD50 (rat, strain Sas:MRC(WI)BR, females, in feed, site: any site (literature study), lesion: several types, types named in the paper, dosed 147 weeks, study length 151 weeks) stood at 139 mg/kg/day. Further, the TD50 is 1860 mg/kg/day (rat, strain Sas:MRC(WI)BR, females, in feed, site: liver, lesion: hepatocellular carcinoma, dosed 147 weeks, study length 151 weeks); 431 mg/kg/day (rat, strain Sas:MRC(WI)BR, females, in feed, site: mammary gland, lesion: fibroadenoma, dosed 147 weeks, study length 151 weeks); 446 mg/kg/day (rat, strain Sas:MRC(WI)BR, females, in feed, site: mammary gland, lesion: several types, types named in the paper, dosed 147 weeks, study length 151 weeks); 4050 mg/kg/day (rat, strain Sas:MRC(WI)BR, females, in feed, site: subcutaneous tissue, lesion: several types, types named in the paper, dosed 147 weeks, study length 151 weeks); 2970 mg/kg/day (inactive) (rat, strain Sas:MRC(WI)BR, females, in feed, site: uterus, lesion: several types, types named in the paper, dosed 147 weeks, study length 151 weeks); 211 mg/kg/day (rat, strain Sas:MRC(WI)BR, males, in feed, site: any site (literature study), lesion: several types, types named in the paper, dosed 140 weeks, study length 144 weeks). In addition, the TD50 (rat, strain Sas:MRC(WI)BR, males, in feed, site: liver, lesion: hepatocellular carcinoma, dosed 140 weeks, study length 144 weeks) stood at 45900 mg/kg/day; the TD50 (rat, strain Sas:MRC(WI)BR, males, in feed, site: mammary gland, lesion: fibroadenoma, dosed 140 weeks, study length 144 weeks) was determined as 2490 mg/kg/day; the TD50 (rat, strain Sas:MRC(WI)BR, males, in feed, site: pituitary gland, lesion: several types, types named in the paper, dosed 140 weeks, study length 144 weeks) was 731 mg/kg/day; the TD50 (rat, strain Sas:MRC(WI)BR, males, in feed, site: subcutaneous tissue, lesion: several types, types named in the paper, dosed 140 weeks, study length 144 weeks) was found to be 2360 mg/kg/day; the TD50 (rat, strain Sas:MRC(WI)BR, males, in feed, site: testis, lesion: several types, types named in the paper, dosed 140 weeks, study length 144 weeks) was 993 mg/kg/day; the TD50 (rat, strain Sprague-Dawley, females, in feed, site: any site (literature study), lesion: several types, types named in the paper, dosed 66 weeks, study length 75 weeks) was 61.1 mg/kg/day (inactive). The TD50 (rat, strain Sprague-Dawley, females, in feed, site: uterus, lesion: adenomyoma, dosed 66 weeks, study length 75 weeks) is 180 mg/kg/day (inactive). Besides, the carcinogen call (rat, strain Sas:MRC(WI)BR, females, in feed, site: pituitary gland, lesion: several types, types named in the paper, dosed 147 weeks, study length 151 weeks) was “negative (inactive)”.

With `CCCN=[N+]([O-])CCC`, the TD50 runs as follows: (rat, strain Sprague-Dawley, males, by gavage, site: liver, lesion: hepatocellular carcinoma, dosed 26 weeks, study length 77 weeks) 0.00736 mg/kg/day; (rat, strain Sprague-Dawley, males, by gavage, site: nasal cavity, lesion: esthesioneuroepithelioma, dosed 26 weeks, study length 77 weeks) 0.000723 mg/kg/day; (rat, strain Sprague-Dawley, males, by gavage, site: nasal cavity, lesion: papilloma, dosed 26 weeks, study length 77 weeks) 0.00736 mg/kg/day; (rat, strain Sprague-Dawley, males, by gavage, site: nasal cavity, lesion: several types, types named in the paper, dosed 26 weeks, study length 77 weeks) 0.000596 mg/kg/day; (rat, strain Sprague-Dawley, males, by gavage, site: skin, lesion: keratoacanthoma, dosed 26 weeks, study length 77 weeks) 0.00038 mg/kg/day. Moreover, the carcinogen call (rat, strain Sprague-Dawley, males, by gavage, site: skin, lesion: several types, types named in the paper, dosed 26 weeks, study length 77 weeks) was “positive”.

On to `ClCOCC(COCCl)OCCl`, for which the TD50 (mouse, strain Ha/ICR, females, i.p., site: abdomen, lesion: sarcoma, dosed 76 weeks, study length 76 weeks) is 3.44 mg/kg/day.
